Experimental data reported in article PMC11550998, “Novel 5-HT7 receptor antagonists modulate intestinal immune responses and reduce severity of colitis” (American Journal of Physiology - Gastrointestinal and Liver …, 2024).

Experiments:
α2C = target: T1, α2C (Homo sapiens, UniProt P18825); experiment: PDSP selectivity profiling, α2C; format: binding
T1 construct: NIMH Psychoactive Drug Screening Program (PDSP), assay service
Protocol: (§1) In vitro assessments of MC-170073, MC-20078, and MC-230079 activity at the following targets were determined using the assay systems available through the Psychoactive Drug Screening Program (PDSP). Detailed protocols for each assay are available at https://pdsp.unc.edu/pdspweb/?site=assays. Receptors 5-HT1A, 5-HT1B, 5-HT1D, 5-HT1E, 5-HT2A, 5-HT2B, 5-HT2C, 5-HT3, 5-HT5A, 5-HT6, 5-HT7, α1A, α1B, α1D, α2A, α2B, α2C, benzodiazepine, β1, β2, β3, GABA-A, H1, H2, H3, H4, M1, M2, M3, M4, M5, δ-opioid, κ-opioid, and µ-opioid and transporters dopamine, norepinephrine, and serotonin were evaluated.

H1 = target: T2, H1 (Homo sapiens, UniProt P35367); experiment: PDSP selectivity profiling, H1; format: binding
T2 construct: NIMH Psychoactive Drug Screening Program (PDSP), assay service
Protocol: as §1

D1 = target: T3, D1 (Homo sapiens, UniProt P21728); experiment: PDSP selectivity profiling, D1; format: binding
T3 construct: NIMH Psychoactive Drug Screening Program (PDSP), assay service

α2A = target: T4, α2A (Homo sapiens, UniProt P08913); experiment: PDSP selectivity profiling, α2A; format: binding
T4 construct: NIMH Psychoactive Drug Screening Program (PDSP), assay service
Protocol: as §1

[1] = Microsomal stability assay, mouse liver microsomes; format: in vitro ADME; details: 37°C, NADPH regenerating system, read-out: T1/2 MLM
Protocol: Test compounds were assessed for microsomal stability by incubating at 37°C in the presence of mouse or human liver microsomes and an NADPH regenerating system as described by Yang et al. ([16]). Microsomal protein content was adjusted to ensure accurate rates of substrate consumption. Analysis was performed by LC-MS/MS analysis.

[2] = test system: CD4+CD45RBhigh T cell-induced colitis; experiment: CD4+CD45RBhigh T cell-induced chronic colitis model; format: in vivo, Rag1-/- mice
Excerpt: C57BL/6 (Taconic, Cambridge City, IN) for the DSS model of colitis, as well as C57BL/6 and Rag1^−/− mice (Jackson Laboratory, Bar Harbor, ME) for the T-cell transfer model, were kept in sterilized, filter-topped cages under specific pathogen-free conditions upon arrival and fed autoclaved food. Male mice aged 8–10 wk were used for all experiments. Mice were acclimatized for 7 days before the start of any experiments. All experiments were approved by the animal ethics committee of McMaster University and conducted under Canadian guidelines for animal research.
Colitis was induced in Rag1^−/− mice by adoptive transfer of fluorescence-activated cell sorting (FACS)-sorted CD4^+CD45RB^high T cells, as described previously ([18]). Briefly, CD4^+ T cells were isolated from splenocytes of healthy C57BL/6 mice by the EasySep Mouse Naive CD4^+ T Cell Isolation Kit (StemCell Technology, Vancouver, Canada). Naive CD4^+ T cells were then labeled with PE-cy7-conjugated anti-mouse CD3 (BioLegend, San Diego, CA), allophycocyanin (APC)-conjugated anti-mouse CD4 (BD Biosciences), and fluorescein isothiocyanate (FITC)-conjugated anti-mouse CD45RB (BD Biosciences, Mississauga, Canada). CD4^+CD45RB^high T cells were sorted using a FACS Aria II flow cytometer (BD Biosciences, Mississauga, Canada). Cell viability was assessed using a Trypan blue assay before injection. Recipients were administered ∼5 × 10^5 sorted T cells via intraperitoneal injection.
For acute DSS-induced colitis, C576BL/6 mice were treated with MC-170073 (10 mg/kg of body wt) or vehicle (10% DMSO in normal saline) via intraperitoneal injection once daily for 6 days, starting 1 day before the beginning of DSS. In a separate experiment, C57BL/6 mice were orally administered with MC-230078 (10 mg/kg) or vehicle twice daily for 5 days, starting from the beginning of DSS. For chronic DSS-induced colitis, C57BL/6 mice were treated with MC-170073 (10 mg/kg ip) or vehicle once daily for 6 days, starting 1 day before the beginning of the third cycle. Last, for CD4^+CD45RB^high T cell-induced chronic colitis, reconstituted Rag1^−/− mice were orally administered MC-230078 (5 mg/kg or 10 mg/kg) or a vehicle twice daily for 10 days starting from week 6 post-reconstitution of T cells.
Disease activity index (DAI) is a combined score of weight loss, stool consistency, and fecal bleeding and was blindly assessed using a previously published scoring system ([19]). This scoring system was defined as follows: weight loss: 0 = no loss; 1 = 1–5%; 2 = 5–10%; 3 = 10–20%; 4 = 20%+; stool, 0 = normal; 2 = loose stool; 4 = diarrhea; and bleeding: 0 = no blood; 2 = hemoccult positive (Hemoccult II; Beckman Coulter, Fullerton, CA); and 4 = gross blood (blood around anus). DAI was measured across all days of DSS treatment. Macroscopic damage scores were blindly scored using a previously published scoring system for DSS-induced colitis ([19]).
Colonic myeloperoxidase (MPO) levels were measured following a published protocol ([19]). Briefly, colonic tissue samples were homogenized in ice-cold 50 mmol·L^−1 potassium phosphate buffer containing 0.5% hexadecyl trimethyl ammonium bromide (pH = 6.0) (Sigma). Homogenates were centrifuged, the supernatant was removed, and an aliquot was then added to a solution containing potassium phosphate buffer, O-dianisidine, and hydrogen peroxide (Sigma-Aldrich). The absorbance was measured at 450 nm by a spectrophotometer (model EL808, BioTek). MPO level was expressed in units per milligram of tissue, where 1 U is defined as the quantity of enzyme able to convert 1 μmol hydrogen peroxide to water per minute at room temperature.
Segments of the proximal colon were washed with PBS, fixed in 10% neutral-buffered formalin, washed with ethanol, and embedded in paraffin. […]

[3] = 10 mg/kg orally twice daily 10 days, vs vehicle

T2 sequence (P35367 whole entry): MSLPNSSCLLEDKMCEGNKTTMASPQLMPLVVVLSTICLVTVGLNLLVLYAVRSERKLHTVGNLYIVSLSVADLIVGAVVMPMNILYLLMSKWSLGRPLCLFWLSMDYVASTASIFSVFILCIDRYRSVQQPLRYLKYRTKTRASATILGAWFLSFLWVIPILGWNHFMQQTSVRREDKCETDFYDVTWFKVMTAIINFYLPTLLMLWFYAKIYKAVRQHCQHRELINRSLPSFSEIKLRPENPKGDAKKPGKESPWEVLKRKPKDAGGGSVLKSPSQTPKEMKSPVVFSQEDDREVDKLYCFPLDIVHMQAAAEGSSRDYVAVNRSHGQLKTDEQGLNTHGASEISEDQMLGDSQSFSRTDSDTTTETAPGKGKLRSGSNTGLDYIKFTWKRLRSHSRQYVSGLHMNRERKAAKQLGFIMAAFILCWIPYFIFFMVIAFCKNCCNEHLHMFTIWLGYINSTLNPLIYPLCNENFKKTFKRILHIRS
T1 sequence (P18825 whole entry): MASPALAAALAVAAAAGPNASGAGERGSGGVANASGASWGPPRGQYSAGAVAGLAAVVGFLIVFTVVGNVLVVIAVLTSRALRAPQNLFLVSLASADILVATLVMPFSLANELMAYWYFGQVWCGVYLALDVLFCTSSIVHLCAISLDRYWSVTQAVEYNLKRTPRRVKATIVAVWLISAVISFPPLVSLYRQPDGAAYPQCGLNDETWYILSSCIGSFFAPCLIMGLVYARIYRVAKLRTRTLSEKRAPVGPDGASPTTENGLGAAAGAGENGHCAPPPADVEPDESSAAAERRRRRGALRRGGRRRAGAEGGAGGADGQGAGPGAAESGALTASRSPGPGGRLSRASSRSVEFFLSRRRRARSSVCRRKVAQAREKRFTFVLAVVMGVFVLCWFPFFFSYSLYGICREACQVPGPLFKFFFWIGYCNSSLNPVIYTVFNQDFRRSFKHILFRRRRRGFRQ
T4 sequence (P08913 whole entry): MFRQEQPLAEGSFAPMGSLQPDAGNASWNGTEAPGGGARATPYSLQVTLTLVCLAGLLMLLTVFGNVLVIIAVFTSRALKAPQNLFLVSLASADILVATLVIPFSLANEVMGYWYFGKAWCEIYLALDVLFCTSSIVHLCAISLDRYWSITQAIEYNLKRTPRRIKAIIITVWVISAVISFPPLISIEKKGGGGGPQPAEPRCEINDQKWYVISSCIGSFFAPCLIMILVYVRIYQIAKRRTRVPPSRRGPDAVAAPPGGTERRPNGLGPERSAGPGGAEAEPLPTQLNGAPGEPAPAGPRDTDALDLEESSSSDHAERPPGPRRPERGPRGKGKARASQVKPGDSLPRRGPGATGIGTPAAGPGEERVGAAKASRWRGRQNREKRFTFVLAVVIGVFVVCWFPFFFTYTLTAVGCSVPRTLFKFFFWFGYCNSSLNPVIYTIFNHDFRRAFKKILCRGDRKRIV
T3 sequence (P21728 whole entry): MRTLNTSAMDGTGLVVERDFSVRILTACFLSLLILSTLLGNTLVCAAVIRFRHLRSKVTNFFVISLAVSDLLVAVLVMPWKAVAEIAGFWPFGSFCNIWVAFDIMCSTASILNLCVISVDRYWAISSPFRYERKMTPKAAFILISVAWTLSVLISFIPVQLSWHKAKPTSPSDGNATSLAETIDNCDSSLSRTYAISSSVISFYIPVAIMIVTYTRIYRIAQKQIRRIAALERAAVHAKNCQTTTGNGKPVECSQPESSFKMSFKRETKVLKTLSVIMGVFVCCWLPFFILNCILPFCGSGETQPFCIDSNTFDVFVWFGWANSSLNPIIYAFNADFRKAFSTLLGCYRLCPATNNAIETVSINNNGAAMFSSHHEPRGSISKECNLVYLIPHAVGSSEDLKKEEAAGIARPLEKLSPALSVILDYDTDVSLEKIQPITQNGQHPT

Row | SMILES | Ki (α2C) | Ki (H1) | Ki (D1) | Ki (α2A) | half-life [1] | DAI ([2]; 10 mg/kg orally twice daily 10 days from week 6, from day 4 of dosing, vs vehicle) | colonic IFN-γ [2, 3] | colonic IL-1β [2, 3] | colonic IL-6 [2, 3] | colonic MPO levels [2, 3] | colonic TNF-α [2, 3] | macroscopic damage [2, 3] | body weight change ([2]; between the two drug-treated groups (5 and 10 mg/kg)) | histological damage scores ([2]; higher dosage (10 mg/kg) orally twice daily 10 days) | colonic 5-HT levels ([2]; treated vs vehicle-treated mice)
1 | CCC1(CC)CC(CCN2CCN(c3ccc(O)cc3)CC2)OC1=O (stereo not drawn) [MC-170073] | 3600 nM | 915 nM | 301 nM | 3480 nM | 17 min | – | – | – | – | – | – | – | – | – | –
2 | CCC1(CC)C[C@@H](CCN2CCN(c3ccc(O)cc3)CC2)OC1=O [MC-230078] | – | – | – | – | – | significant reduction | significant downregulation | significant downregulation | significant downregulation | significant decrease | significant downregulation | reduced | no difference | significantly lower | no differences
